Data taken from US20040072206A1, “Method for identifying modulators of transcription” (priority 2000, published 2004).

How the values were obtained:
[1] = target: T1, B. subtilis RNAP (Bacillus subtilis, UniProt P37870+P37871); experiment: Dual reporter assay in strain PL37: test reporter Pxyl-lacZ and ratio of control to test reporter (RES:MUG); assay type: cell-based; conditions: for Ratio of the control reporter (RES): test reporter (MUG): strain PL37, DMSO control […]
T1 construct: endogenous in cells; host or cells: Bacillus subtilis strain PL37 (built from strain 168)
T1 sequence (P37871 whole entry): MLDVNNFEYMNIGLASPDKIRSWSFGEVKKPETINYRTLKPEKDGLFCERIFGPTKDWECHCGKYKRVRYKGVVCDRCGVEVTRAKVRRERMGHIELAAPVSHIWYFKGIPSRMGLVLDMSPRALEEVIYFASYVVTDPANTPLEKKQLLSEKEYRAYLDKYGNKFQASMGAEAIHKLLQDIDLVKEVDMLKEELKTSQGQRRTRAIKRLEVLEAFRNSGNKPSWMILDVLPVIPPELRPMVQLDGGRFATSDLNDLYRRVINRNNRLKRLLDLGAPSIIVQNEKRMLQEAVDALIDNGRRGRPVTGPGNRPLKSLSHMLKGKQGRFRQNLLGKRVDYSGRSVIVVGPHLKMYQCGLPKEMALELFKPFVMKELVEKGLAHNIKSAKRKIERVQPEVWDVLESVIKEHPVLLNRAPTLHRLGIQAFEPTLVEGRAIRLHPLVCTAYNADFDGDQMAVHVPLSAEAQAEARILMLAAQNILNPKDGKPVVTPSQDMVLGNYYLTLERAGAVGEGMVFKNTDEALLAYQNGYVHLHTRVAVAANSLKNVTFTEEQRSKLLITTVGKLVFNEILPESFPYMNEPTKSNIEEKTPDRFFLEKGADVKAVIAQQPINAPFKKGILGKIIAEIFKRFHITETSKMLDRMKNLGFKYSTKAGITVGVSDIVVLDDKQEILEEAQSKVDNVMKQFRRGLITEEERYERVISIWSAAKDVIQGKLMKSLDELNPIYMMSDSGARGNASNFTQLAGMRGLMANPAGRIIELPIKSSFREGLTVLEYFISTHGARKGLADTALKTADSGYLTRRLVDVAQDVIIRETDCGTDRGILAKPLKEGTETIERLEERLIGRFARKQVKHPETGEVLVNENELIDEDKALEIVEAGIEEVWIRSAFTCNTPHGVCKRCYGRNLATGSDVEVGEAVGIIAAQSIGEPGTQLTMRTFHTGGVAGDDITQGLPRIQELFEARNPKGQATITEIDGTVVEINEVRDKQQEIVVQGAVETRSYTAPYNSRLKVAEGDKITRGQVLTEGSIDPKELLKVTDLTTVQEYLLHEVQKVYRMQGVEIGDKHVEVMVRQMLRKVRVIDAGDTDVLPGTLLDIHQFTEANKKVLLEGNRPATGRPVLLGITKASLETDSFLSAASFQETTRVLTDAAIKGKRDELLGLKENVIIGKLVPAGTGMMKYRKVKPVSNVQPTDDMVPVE
T1 sequence (P20429 whole entry, further chain): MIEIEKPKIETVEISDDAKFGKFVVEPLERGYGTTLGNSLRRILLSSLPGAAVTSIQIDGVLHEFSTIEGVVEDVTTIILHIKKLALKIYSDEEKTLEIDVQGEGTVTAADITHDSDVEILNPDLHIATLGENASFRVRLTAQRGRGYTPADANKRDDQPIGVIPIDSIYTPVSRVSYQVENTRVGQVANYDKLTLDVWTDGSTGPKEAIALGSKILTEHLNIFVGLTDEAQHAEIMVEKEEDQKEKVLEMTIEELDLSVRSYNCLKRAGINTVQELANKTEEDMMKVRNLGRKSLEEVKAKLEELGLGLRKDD
T1 sequence (O35011 whole entry, further chain): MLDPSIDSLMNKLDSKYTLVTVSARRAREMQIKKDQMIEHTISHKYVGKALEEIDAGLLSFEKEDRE
T1 sequence (P37870 whole entry): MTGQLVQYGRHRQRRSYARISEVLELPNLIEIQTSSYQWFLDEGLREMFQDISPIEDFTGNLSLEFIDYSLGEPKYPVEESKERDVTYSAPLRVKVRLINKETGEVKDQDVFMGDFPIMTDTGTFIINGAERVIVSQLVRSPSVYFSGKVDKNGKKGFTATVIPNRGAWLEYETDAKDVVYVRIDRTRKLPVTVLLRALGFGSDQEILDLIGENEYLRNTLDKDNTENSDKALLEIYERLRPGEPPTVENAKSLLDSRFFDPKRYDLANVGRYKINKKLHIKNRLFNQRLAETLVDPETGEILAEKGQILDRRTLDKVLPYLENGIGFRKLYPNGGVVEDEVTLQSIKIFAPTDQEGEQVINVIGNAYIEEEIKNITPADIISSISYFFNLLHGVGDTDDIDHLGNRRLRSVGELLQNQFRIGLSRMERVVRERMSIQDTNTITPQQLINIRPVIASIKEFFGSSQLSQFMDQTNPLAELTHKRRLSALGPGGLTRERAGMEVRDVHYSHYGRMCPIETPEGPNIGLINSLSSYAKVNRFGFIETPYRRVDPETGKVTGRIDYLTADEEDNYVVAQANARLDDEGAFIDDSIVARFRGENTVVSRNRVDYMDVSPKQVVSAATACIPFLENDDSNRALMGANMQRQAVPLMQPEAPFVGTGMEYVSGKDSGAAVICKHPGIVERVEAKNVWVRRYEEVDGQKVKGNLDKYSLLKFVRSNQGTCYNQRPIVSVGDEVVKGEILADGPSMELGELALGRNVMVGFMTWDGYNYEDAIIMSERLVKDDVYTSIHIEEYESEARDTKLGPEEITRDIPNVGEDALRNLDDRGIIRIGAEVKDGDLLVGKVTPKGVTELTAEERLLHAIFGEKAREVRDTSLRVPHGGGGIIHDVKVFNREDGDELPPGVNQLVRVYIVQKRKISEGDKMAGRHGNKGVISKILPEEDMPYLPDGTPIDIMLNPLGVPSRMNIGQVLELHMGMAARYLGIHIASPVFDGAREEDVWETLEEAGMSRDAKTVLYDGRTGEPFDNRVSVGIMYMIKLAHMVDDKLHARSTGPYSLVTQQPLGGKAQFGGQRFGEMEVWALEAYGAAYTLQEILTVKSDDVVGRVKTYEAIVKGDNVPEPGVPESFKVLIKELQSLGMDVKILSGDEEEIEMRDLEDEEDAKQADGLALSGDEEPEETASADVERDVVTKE
Description: (§1) 20 known antibiotics were tested at a range of concentrations to determine their effect on test and control reporters within the assay. […] Cultures of PL37 grown in PAB, were diluted to 0.05 A600 and then grown for 2 hours at 37° C. in PAB supplemented with 0.02 mM IPTG. Cells were pelleted and frozen. They were later resuspended and diluted in PAB supplemented with 0.02 mM IPTG and grown at 37° C. to early exponential phase. Cultures were then diluted to 0.05 A600 in PAB and added in 20 μl volumes to wells of microtitre plates containing 20 μl volumes of the antibiotics. Plates were incubated at 37° C. for two hours, and assay mix was added to detect reporter enzyme activity (see below).
(§2) Following the addition of 160 μl of assay mix (1.3×Z buffer containing 94 μg/ml lysozyme, 8.4 μg/ml 4-methylumbelliferyl-β-D-galactoside, 0.53 μg/ml resorufin-β-D-glucuronide and 0.05% Triton) to each well, the microtitre plate was incubated in the dark for 30 mini or 1 hour at room temperature. Fluorescence was read on a BMG FLUOstar Galaxy at excitation/emission 355/460 nm and 544/590 nm, respectively, with gains set at 5 and 25, respectively.

[2] = target: T2, T7 RNAP (Escherichia phage T7, UniProt P00573); experiment: Dual reporter assay in strain PL37: control reporter PT7X-gus; assay type: cell-based, bacteriophage T7; conditions: strain PL37, FIG. 5
T2 construct: expressed in transfected cells; host or cells: Bacillus subtilis PL37, with Pspac-rpoT7 integrated in the chromosome and induced by IPTG
T2 sequence (P00573 whole entry): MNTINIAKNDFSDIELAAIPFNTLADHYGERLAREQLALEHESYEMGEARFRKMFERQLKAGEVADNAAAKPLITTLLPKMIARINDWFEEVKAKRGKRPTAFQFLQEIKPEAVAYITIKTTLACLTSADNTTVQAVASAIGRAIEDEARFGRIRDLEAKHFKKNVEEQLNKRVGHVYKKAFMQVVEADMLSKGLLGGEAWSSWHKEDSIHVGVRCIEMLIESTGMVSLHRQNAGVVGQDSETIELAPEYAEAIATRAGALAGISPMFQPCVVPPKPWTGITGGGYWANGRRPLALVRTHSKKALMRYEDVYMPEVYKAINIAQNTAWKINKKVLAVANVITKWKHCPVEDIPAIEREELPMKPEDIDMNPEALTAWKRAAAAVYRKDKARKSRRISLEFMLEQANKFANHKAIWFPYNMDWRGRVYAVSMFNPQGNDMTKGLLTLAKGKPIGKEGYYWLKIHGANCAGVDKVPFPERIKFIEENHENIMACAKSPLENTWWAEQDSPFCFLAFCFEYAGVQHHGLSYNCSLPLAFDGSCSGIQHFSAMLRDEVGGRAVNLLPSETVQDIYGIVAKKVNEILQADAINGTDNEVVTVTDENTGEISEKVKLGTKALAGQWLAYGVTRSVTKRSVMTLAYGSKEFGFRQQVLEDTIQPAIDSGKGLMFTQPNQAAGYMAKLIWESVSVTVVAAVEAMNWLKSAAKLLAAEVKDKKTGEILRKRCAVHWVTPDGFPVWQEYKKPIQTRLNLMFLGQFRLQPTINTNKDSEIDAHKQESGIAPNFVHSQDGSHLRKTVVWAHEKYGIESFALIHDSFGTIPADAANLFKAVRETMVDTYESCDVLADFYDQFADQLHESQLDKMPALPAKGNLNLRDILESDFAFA
Description: as §1, §2

[3] = target: T3, bacterial RNA polymerase (Bacillus subtilis, UniProt P37870+P37871); experiment: Dual reporter assay in strain X (xylose-induced lacZ and T7 RNAP-driven gus reporters); assay type: cell-based; conditions: 30 min incubation
T3 construct: endogenous in cells; host or cells: Bacillus subtilis strain X (derivative of strain 168)
T3 sequence (O35011 whole entry): as the sequence (O35011 whole entry, further chain) above
T3 sequence (P20429 whole entry, further chain): as the sequence (P20429 whole entry, further chain) above
T3 sequence (P37870 whole entry): as the sequence (P37870 whole entry) above
T3 sequence (P37871 whole entry): as the sequence (P37871 whole entry) above
From the text: The strain X is a derivative of the standard laboratory strain of Bacillus subtilis 168. It has been modified in three ways.
1. It carries a xylose-inducible promoter driving transcription of the well known reporter gene lacZ, encoding the enzyme β-galactosidase. The reporter gene is silent or expressed at low levels in the absence of xylose because the endogenous XylR protein binds to the promoter region, reducing the ability of RNAP to initiate transcription. On addition of xylose or similar sugar, the repressor leaves the promoter allowing RNAP to transcribe the gene strongly, resulting in increased synthesis of β-galactosidase. A simple colourigenic substrate, ONPG was used to detect the formation of the enzyme.
2. Strain X also carries a second reporter gene comprising a promoter recognised by the RNAP of bacteriophage T7. This promoter has been modified so as to be recognised and repressed by the same XylR repressor as controls the first reporter. Consequently, the promoter cannot be utilised by T7 RNAP unless xylose is present. […]
The assay was done by growing a culture of strain X in the absence of xylose and then dispensing aliquots of culture into the wells of a microtitre plate. […] The plate was incubated for 30 min to allow accumulation of the two reporter enzymes, then the cells were lysed and the two enzyme activities were measured.

[4] = Dilution Number 1 (highest concentration tested: 128, 16 or 0.5 μg/ml depending on antibiotic)
[5] = Dilution Number 11 (lowest concentration tested: 0.125, 0.016 or 0.0005 μg/ml depending on antibiotic)

Molecule | Expression of the test reporter, xyl-lacZ ([1]; strain PL37, FIG. 6) | RES:MUG ratio compared with the no antibiotic control (DMSO) ([1]; strain PL37, Table 2, FIG. 7) | Detection as specific inhibitor of RNA polymerase ([1]; strain PL37, antibiotic panel) | Ratio of the control reporter (RES): test reporter (MUG) [1, 4] | Ratio of the control reporter (RES): test reporter (MUG) ([1]; Dilution Number 2) | Ratio of the control reporter (RES): test reporter (MUG) ([1]; Dilution Number 3) | Ratio of the control reporter (RES): test reporter (MUG) ([1]; Dilution Number 4) | Ratio of the control reporter (RES): test reporter (MUG) ([1]; Dilution Number 5) | Ratio of the control reporter (RES): test reporter (MUG) ([1]; Dilution Number 6) | Ratio of the control reporter (RES): test reporter (MUG) ([1]; Dilution Number 7) | Ratio of the control reporter (RES): test reporter (MUG) ([1]; Dilution Number 8) | Ratio of the control reporter (RES): test reporter (MUG) ([1]; Dilution Number 9) | Ratio of the control reporter (RES): test reporter (MUG) ([1]; Dilution Number 10) | Ratio of the control reporter (RES): test reporter (MUG) [1, 5] | Expression of the T7 RNAP-dependent control reporter [2] | Reporter enzyme activities (β-galactosidase and β-glucuronidase) [3]
CNC(=O)[C@@H](C)[C@H]1C(=O)/C(=C(O)/C=C/C(C)=C/[C@@H](C)[C@H]2O[C@@]3(C)O[C@H](C=C[C@@]34CO4)[C@@H]2C)C(=O)N1[C@@H]1CC[C@H](O)[C@H](C)O1 [Streptolydigin] | reduced drastically | greater than that of the no antibiotic control (DMSO) at several concentrations | detected as specific inhibitors of RNA polymerase | 16.44 | 16.68 | 14.07 | 10.22 | 4.88 | 2.53 | 1.74 | 1.41 | 1.27 | 1.23 | 1.16 | increased | only the reporter enzyme driven by the T7 RNAP (β-glucuronidase) was active
CC(O)C(=O)O.COc1cc(Cc2cnc(N)nc2N)cc(OC)c1OC [Trimethoprim Lactate] |  |  |  | 0.62 | 0.55 | 0.54 | 0.52 | 0.54 | 0.58 | 0.68 | 0.65 | 0.63 | 0.81 | 1.00 |  | 
CN[C@H](CC(C)C)C(=O)N[C@H]1C(=O)N[C@@H](CC(N)=O)C(=O)N[C@H]2C(=O)N[C@H]3C(=O)N[C@H](C(=O)N[C@H](C(=O)O)c4cc(O)cc(O)c4-c4cc3ccc4O)[C@H](O)c3ccc(c(Cl)c3)Oc3cc2cc(c3O[C@@H]2O[C@H](CO)[C@@H](O)[C@H](O)[C@H]2O[C@H]2C[C@](C)(N)[C@H](O)[C@H](C)O2)Oc2ccc(cc2Cl)[C@H]1O [Vancomycin] |  |  |  |  |  |  |  |  |  | 1.03 | 1.04 | 1.07 | 1.11 | 1.12 |  | 
Polymyxin |  |  |  | 1.19 | 1.22 | 1.21 | 1.23 | 1.44 | 1.24 | 1.20 | 1.15 | 1.16 | 1.16 | 1.17 |  | 
